Source: PubChem BioAssay AID624254 (Broad Institute, 2012)
Active and inactive are the calls of the source. How the calls were made is not given here.

Assay: Quorum luxo inducers, light production, v cholerae bh1651 luxod47e, confirmatory dose response (AID 624254)
Details: V. cholerae BH1651 luxOD47E, luciferase light induction, 6 h; at 50 µM (top of the series)

Cc1ccc2cc(C(c3nnnn3C3CCCC3)N3CCN(c4ccc(F)cc4)CC3)c(=O)[nH]c2c1 (stereo not given)
activation (light increase): inactive

CCCc1cc(Nc2ccccc2OCC)n2ncnc2n1
activation (light increase): inactive

CCCOc1ccc(-c2nc(C#N)c(N3CCN(CC)CC3)o2)cc1
activation (light increase): inactive

Cc1cccc(NS(=O)(=O)c2ccc(Oc3ccccc3)cc2)n1
activation (light increase): inactive

O=C(OC1CCN(c2ncc(C(F)(F)F)cc2Cl)CC1)c1ccc(Cl)cc1
activation (light increase): inactive

Cc1cc(C)cc(OC(=O)c2cccnc2)c1
activation (light increase): inactive

COc1ccc(C(=O)COC(=O)CNC(=O)c2ccc(Cl)cc2Cl)c(OC)c1
activation (light increase): inactive

COc1ccccc1N1CCN(C(=O)c2cc3c(s2)CCC3)CC1
activation (light increase): inactive

CCCN1CCN(C(=O)CCCNC(=O)Cn2cnc3sc(C)c(C)c3c2=O)CC1
activation (light increase): inactive

COCCNC(=O)c1cnn2c1NC(c1ccco1)CC2C(F)(F)F (stereo not given)
activation (light increase): inactive

Cc1cccc(NC(=O)c2ccc(Oc3ccccc3)cc2)n1
activation (light increase): inactive

O=S(=O)(Nc1cccc(S(=O)(=O)N2CCCCC2)c1)c1ccccc1F
activation (light increase): inactive

O=c1c2ccccc2nnn1CSc1nnc(-c2cccnc2)n1-c1ccccc1F
activation (light increase): inactive

CCCS(=O)(=O)N1CCCC(C(=O)NCCCN(C)Cc2ccccc2)C1 (stereo not given)
activation (light increase): inactive

Cc1ccccc1OCC(=O)OCC(=O)N1CCCc2ccccc21
activation (light increase): inactive

CN(CC(=O)NCCN1CCOCC1)S(=O)(=O)c1ccc(Cl)cc1
activation (light increase): inactive

CN(C1CCCCC1)S(=O)(=O)CCNC(=O)c1ccccc1
activation (light increase): inactive

COc1ccccc1NS(=O)(=O)c1cn(C)cn1
activation (light increase): inactive

O=C(NCc1ccccc1F)C(=O)NCC1CCCN1S(=O)(=O)c1ccccc1 (stereo not given)
activation (light increase): inactive

COc1ccc(C(=O)N2CCC(C(=O)c3ccc(F)cc3)CC2)cc1
activation (light increase): inactive

CCc1ccc(S(=O)(=O)Nc2ccc(Br)cn2)cc1
activation (light increase): inactive

COc1ccccc1NC(=O)COc1ccc2c(c1)OCO2
activation (light increase): inactive

COCCCn1c(=S)[nH]c2ccc(N3CCOCC3)cc2c1=O
activation (light increase): inactive

Cc1cc(C(C)(C)C)oc1C(=O)OCC(=O)NC1CCCCC1
activation (light increase): inactive

COC(=O)c1c(-c2ccc(Br)cc2)noc1N
activation (light increase): inactive

COc1ccccc1NC(=O)COC(=O)c1ccc2c(c1)OCCO2
activation (light increase): inactive

Cc1nc(=O)c(-c2ccccc2)c(C)n1CCCCCC(=O)O
activation (light increase): inactive

Cc1ccc(OCCC(=O)OCC(=O)Nc2ccc3c(c2)OCO3)cc1
activation (light increase): inactive

CCOC(=O)c1sc2cc([N+](=O)[O-])cc(SCCO)c2c1N
activation (light increase): inactive

O=S(=O)(Cc1ccc(Cl)cc1)N1CCN(Cc2ccccc2)CC1
activation (light increase): inactive

COC(=O)Nc1ccc(S(=O)(=O)NCCO)cc1
activation (light increase): inactive

Cc1ccc(S(=O)(=O)N(C)c2nonc2C)cc1
activation (light increase): inactive

CCn1nnnc1SCC(=O)c1ccc2c(c1)OCCO2
activation (light increase): inactive

COCCn1nnnc1CN1CCC(NC(=O)Nc2cccc(OC)c2)CC1
activation (light increase): inactive

Cc1cc(COc2ccccc2O)on1
activation (light increase): inactive

Cc1ccccc1-n1nnnc1-c1ccccc1
activation (light increase): inactive

O=C(O)c1cn[nH]c1-n1cnnn1
activation (light increase): inactive

Cc1cccc(C(=O)OCC(=O)NCC(C)C)c1O
activation (light increase): inactive

CC(C)(C)c1ccc(C(=O)OCC(=O)NC2CC2)cc1
activation (light increase): inactive

Cc1c(C(=O)c2ccc(F)cc2F)c2ccccn2c1CCc1ccccn1
activation (light increase): inactive

CCc1ccc(-c2ccc(C(=O)O)n2C)cc1
activation (light increase): inactive

CC1CCN(c2ccccc2NC(=O)c2cc3ccccc3o2)CC1
activation (light increase): inactive

CC12CCC(=O)N1C(C(=O)NNC(=O)COc1ccc(Br)cc1)CS2 (stereo not given)
activation (light increase): inactive

COc1cc(C(=O)Nc2ccc(NC(=O)C(C)C)nc2)cc(OC)c1OC
activation (light increase): inactive

COc1ccc(CNC(=O)c2ccc(Cl)c(S(=O)(=O)N3CCOCC3)c2)cc1OC
activation (light increase): inactive

O=C(O)C1C2CCC(C2)C1C(=O)Nc1cc(F)ccc1F (stereo not given)
activation (light increase): inactive

COc1ccc(/C(N)=N/OC(=O)Cc2ccccc2OC)cc1
activation (light increase): inactive

COC(=O)C1CCN(C(=O)CN(C)Cc2ccc(C(C)(C)C)cc2)CC1
activation (light increase): inactive

CCN(CC)C(=O)c1sc(NC(=O)Cc2ccc(OC)cc2)c(C#N)c1C
activation (light increase): inactive

S=C(c1ccc(N2CCOCC2)cc1)N1CCCCC1
activation (light increase): inactive

COC(=O)c1[nH]c2ccc(C)cc2c1NC(=O)Nc1ccc(OC)cc1
activation (light increase): inactive

CCCCCn1nc(C(=O)N(CC(C)C)c2c(N)n(CCCC)c(=O)[nH]c2=O)c2ccccc2c1=O
activation (light increase): inactive

O=C(c1ccccc1)N1CCC(c2nc(-c3ccc(S(=O)(=O)N4CCOCC4)cc3)no2)CC1
activation (light increase): inactive

Cc1ccc(C(=O)OCC(=O)NCCNC(=O)COC(=O)c2ccc(C)s2)s1
activation (light increase): inactive

Cc1ccc(C)c(N(C(=O)Cn2nnc(-c3cccs3)n2)C(C(=O)NC2CC2)c2ccc(C)o2)c1 (stereo not given)
activation (light increase): inactive

CCc1ccc(C(=O)Nc2ccc(Br)cn2)cc1
activation (light increase): inactive

Cc1ccc(C(=O)OCC(=O)Nc2ccccc2)cc1NC(=O)c1ccco1
activation (light increase): inactive

Cc1ccccc1NS(=O)(=O)c1cn(C)cn1
activation (light increase): inactive

CCN(CC)S(=O)(=O)c1cccc(C(=O)OCC(=O)C23CC4CC(CC(C4)C2)C3)c1
activation (light increase): inactive

CCCCn1nnnc1NCc1ccc(N(CC)CC)cc1
activation (light increase): inactive

CC(OC(=O)Cn1cnc2c1c(=O)n(C)c(=O)n2C)C(=O)c1ccccc1 (stereo not given)
activation (light increase): inactive

COc1ccc2[nH]c(=O)c(CN(C(=O)c3cccnc3)c3ccc(C)cc3)cc2c1
activation (light increase): inactive

CCc1cc(C(=O)N2CCN(C(=O)c3ccccc3)CC2)sc1C
activation (light increase): inactive

CCCn1nnnc1NCc1ccc(SC)cc1
activation (light increase): inactive

O=C(CCNC(=O)c1ccc(Cl)cc1)NCC(c1ccco1)N1CCCCC1 (stereo not given)
activation (light increase): inactive

Cc1nn(-c2ccccc2)c(C)c1NC(=O)COC(=O)c1cccc(OC(F)F)c1
activation (light increase): inactive

CCOCCCNC(=O)C(NC(=O)c1cnccn1)c1ccc(C)cc1 (stereo not given)
activation (light increase): inactive

COc1ccc(NC(=O)CSc2ccc3c(c2)OCCO3)cc1OC
activation (light increase): inactive

O=C(COC(=O)c1cc(Cl)ccc1Cl)NC1CCCC1
activation (light increase): inactive

C[C@H](CO)N1C[C@H](C)[C@H](CN(C)S(=O)(=O)c2cccs2)Oc2c(NC(=O)C3CC3)cccc2C1=O
activation (light increase): inactive

COc1ccccc1NC(=O)COC(=O)c1cc2c(s1)CCC2
activation (light increase): inactive

O=C(COC(=O)/C=C/c1ccc(OC(F)F)cc1)NC1CCCCCC1
activation (light increase): inactive

O=C(CCc1nc(-c2ccccc2)no1)N1CCCC1
activation (light increase): inactive

CC(C)(C)OC(=O)NCCCC(CCCNC(=O)OC(C)(C)C)C(=O)O
activation (light increase): inactive

Cc1ncc(S(=O)(=O)c2ccccc2)c(-c2ccc(Cl)cc2Cl)n1
activation (light increase): inactive

Cc1ccccc1NC(=O)Cc1nc(COC(=O)c2ccccn2)cs1
activation (light increase): inactive

Cn1ccnc1S(=O)(=O)Nc1ccc(OC(F)(F)F)cc1
activation (light increase): inactive

Cn1c(SCc2cnc(-c3ccccc3)s2)nnc1C1COc2ccccc2O1 (stereo not given)
activation (light increase): inactive

O=C(O)CN1CCN(Cc2ccc(F)cc2Cl)C1=O
activation (light increase): inactive

CCOC(=O)CC1C(=O)NCCN1C(=O)c1cccc(C(F)(F)F)c1 (stereo not given)
activation (light increase): inactive

Cc1ccc(C(=O)COc2cc(C)nc3nncn23)cc1
activation (light increase): inactive

CCOC(=O)N1CCN(C(=S)NCCOC)CC1
activation (light increase): inactive

Cc1ccc(NC(=S)NCCc2c[nH]c3ccccc23)cc1
activation (light increase): inactive

NS(=O)(=O)c1cc(C(=O)OCC(=O)NC2CCCCCCC2)ccc1Cl
activation (light increase): inactive

CN(CC(=O)Nc1ccc(F)c(F)c1F)C(=O)C1CCC1
activation (light increase): inactive

Cc1noc(C)c1NC(=O)Nc1cccc2c1O[C@@H](CN(C)S(=O)(=O)c1cccs1)[C@@H](C)CN([C@H](C)CO)C2=O
activation (light increase): inactive

COc1ccc(-c2ccc(-c3nnc(Cc4ccc(OC)c(OC)c4)o3)cc2)cc1
activation (light increase): inactive

OCCN1CCN(CC(O)COc2ccc(Cl)cc2)CC1 (stereo not given)
activation (light increase): inactive

Cc1ccc(SCc2nc(-c3cccnc3)no2)cc1
activation (light increase): inactive

CCCn1nnnc1NCc1ccc(OC)cc1
activation (light increase): inactive

C=Cn1c(C(=O)O)ccc1-c1ccc(Cl)cc1
activation (light increase): inactive

CN(C)C(=O)c1ccccc1NS(=O)(=O)c1cn(C)cn1
activation (light increase): inactive

Cc1noc(C)c1COc1ccc(C(=O)NCC(c2c(F)cccc2Cl)N(C)C)cc1 (stereo not given)
activation (light increase): inactive

CC(=O)c1cc2c(cc1NS(=O)(=O)c1ccccc1)OCO2
activation (light increase): inactive

CC(C)c1ccc(OCC(=O)NC2CCCC2)cc1
activation (light increase): inactive

O=C(Cc1ccc(-c2ccccc2)cc1)NC1CCCC1
activation (light increase): inactive

Cc1ccc(S(=O)(=O)N(C)C[C@H]2Oc3c(NC(=O)Nc4ccc5c(c4)OCO5)cccc3C(=O)N([C@H](C)CO)C[C@@H]2C)cc1
activation (light increase): inactive

Cc1cc(C)c(S(C)(=O)=O)c(Oc2ccc(C(C)(C)C)cc2)n1
activation (light increase): inactive

CC(C)(C)c1nc(N2CCN(C(=O)c3ccco3)CC2)c2nnn(Cc3ccccc3)c2n1
activation (light increase): inactive

CC1CCCN(C(=O)c2ccc3c(=O)n(Cc4ccc5c(c4)OCO5)c(=S)[nH]c3c2)C1 (stereo not given)
activation (light increase): inactive
